Test [1] addresses T1, human glucocorticoid receptor-α [GRX] isoform (Homo sapiens, UniProt P04150).
T1 construct: host or cells: insect SF21 cells (baculovirus)
T1 sequence (P04150 1-777): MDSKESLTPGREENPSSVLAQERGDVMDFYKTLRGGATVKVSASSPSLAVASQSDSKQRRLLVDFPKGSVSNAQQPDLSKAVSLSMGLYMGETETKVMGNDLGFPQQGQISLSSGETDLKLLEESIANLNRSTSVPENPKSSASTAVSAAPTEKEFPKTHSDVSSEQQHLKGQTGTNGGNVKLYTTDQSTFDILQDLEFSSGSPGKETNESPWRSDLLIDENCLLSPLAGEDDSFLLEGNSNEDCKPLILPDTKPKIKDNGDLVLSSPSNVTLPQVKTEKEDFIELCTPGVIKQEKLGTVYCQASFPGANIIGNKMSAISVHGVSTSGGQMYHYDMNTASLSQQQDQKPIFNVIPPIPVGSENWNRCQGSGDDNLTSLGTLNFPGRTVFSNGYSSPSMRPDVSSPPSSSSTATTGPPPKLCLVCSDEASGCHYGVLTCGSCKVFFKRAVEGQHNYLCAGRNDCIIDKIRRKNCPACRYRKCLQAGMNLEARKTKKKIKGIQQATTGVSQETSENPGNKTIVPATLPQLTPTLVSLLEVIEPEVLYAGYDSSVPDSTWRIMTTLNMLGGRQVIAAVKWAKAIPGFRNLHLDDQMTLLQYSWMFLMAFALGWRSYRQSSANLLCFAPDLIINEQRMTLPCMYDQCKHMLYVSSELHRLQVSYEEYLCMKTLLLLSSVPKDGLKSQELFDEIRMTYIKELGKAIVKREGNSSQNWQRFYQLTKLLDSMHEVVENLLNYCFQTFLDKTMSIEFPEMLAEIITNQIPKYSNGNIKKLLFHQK
Kind of test: Radioligand binding with human glucocorticoid receptor cytosol ([3H]-dexamethasone competition).
Source text: Briefly, cytosol preparations of human glucocorticoid receptor-α [GRX] isoform and human progesterone receptor-A [PRA] isoform were obtained from Ligand Pharmaceuticals (San Diego, Calif.). Both receptor cDNAs were cloned into baculovirus expression vectors and expressed in insect SF21 cells. [^3H]-dexamethasone (Dex, specific activity 82-86 Ci/mmole) and [^3H]-progesterone (Prog, specific activity 97-102 Ci/mmol) were purchased from Amersham Life Sciences (Arlington Heights, Ill.). Glass fiber type C multiscreen MAFC NOB plates were from Millipore (Burlington, Mass.). Hydroxyapatide Bio-Gel HTP gel was from Bio-Rad Laboratories (Hercules, Calif.). Tris(hydroxymethyl)aminomethane (Tris), ethylenediaminetetraacetic acid (EDTA), glycerol, dithiothreitol (DTT) and sodium moylybdate were obtained from Sigma Chemicals (St. Louis, Mo.). Microscint-20 scintillation fluid was from Packard Instrument (Meriden, Conn.).
Stock solutions (32 mM) of compounds were prepared in dimethylsulfoxide (DMSO), and 50× solutions of test compounds were prepared from the 32 mM solution with a 50:50 mixture of DMSO/ethanol. The 50× solution was then diluted with binding buffer that contained 10 mM Tri-HCl, 1.5 mM EDTA, 10% glycerol, 1 mM DTT, 20 mM sodium molybdate, pH 7.5 @4° C. 1% DMSO/ethanol was present in the binding assay.
For GR binding assays, [^3H]-Dex (˜35,000 dpm (˜0.9 nM)), GRX cytosol (˜35 μg protein), test compounds and binding buffer were mixed in a total volume of 200 μL and incubated at 4° C. overnight in a plate shaker. Specific binding was defined as the difference between binding of [^3H]Dex in the absence and in the presence of 1 μM unlabelled Dex.
After an overnight incubation, 50 μL of hydroxyapatite (25% weight/volume) slurry were added to each well and plates were incubated for 10 min at 0° C. in a plate shaker. Plates were suctioned with a Millipore vacuum manifold and each well was rinsed with 300 μL of ice-cold binding buffer. A 250 μL aliquot of Packard Microscint-20 was added to each well and the wells were shaken at room temperature for 20 minutes. The amount of radioactivity was determined with a Packard TopCount plate reader.
The Ki of test compounds was determined using the Cheng-Prusoff equation Ki=IC50/(1+[L*]/[KL]) where L* is the concentration of radioligand and KL is the dissociation constant of the radioligand determined from saturation analysis.

In test [2] the target is T2, human progesterone receptor-A [PRA] isoform (Homo sapiens, UniProt P06401).
T2 construct: host or cells: insect SF21 cells (baculovirus)
T2 sequence (P06401 1-769 isoform P06401-2): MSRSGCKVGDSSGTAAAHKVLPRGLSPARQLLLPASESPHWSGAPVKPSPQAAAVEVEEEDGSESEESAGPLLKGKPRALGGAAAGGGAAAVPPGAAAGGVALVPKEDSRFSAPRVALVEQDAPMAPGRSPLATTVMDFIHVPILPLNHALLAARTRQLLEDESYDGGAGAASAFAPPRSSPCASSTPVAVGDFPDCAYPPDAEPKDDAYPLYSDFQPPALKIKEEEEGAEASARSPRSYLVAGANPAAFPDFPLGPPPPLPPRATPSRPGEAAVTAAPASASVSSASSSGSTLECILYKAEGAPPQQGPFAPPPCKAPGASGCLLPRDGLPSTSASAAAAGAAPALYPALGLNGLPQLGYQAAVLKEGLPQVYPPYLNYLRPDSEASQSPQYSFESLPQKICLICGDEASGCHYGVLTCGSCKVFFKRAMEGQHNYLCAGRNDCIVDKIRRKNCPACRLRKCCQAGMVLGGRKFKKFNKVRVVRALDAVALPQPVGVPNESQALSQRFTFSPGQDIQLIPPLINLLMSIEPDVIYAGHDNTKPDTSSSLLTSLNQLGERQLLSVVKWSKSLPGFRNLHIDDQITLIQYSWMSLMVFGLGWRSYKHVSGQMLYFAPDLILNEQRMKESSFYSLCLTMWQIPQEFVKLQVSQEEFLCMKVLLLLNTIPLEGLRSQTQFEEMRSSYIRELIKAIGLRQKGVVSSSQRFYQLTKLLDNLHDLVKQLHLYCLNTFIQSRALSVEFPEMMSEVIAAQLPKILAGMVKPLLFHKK
Kind of test: Radioligand binding with human progesterone receptor cytosol ([3H]-progesterone competition). To be noted: PRA cytosol expressed in insect SF21 cells, [3H]Prog ~0.8 nM, 4° C. overnight; Ki by Cheng-Prusoff, KL ~4.5 nM; read-out: Ki (nM) PR.

Where [3] appears, read: GRX cytosol expressed in insect SF21 cells, [3H]-Dex ~0.9 nM, 4° C. overnight, Ki by Cheng-Prusoff, KL ~[…], read-out: Ki (nM) GR.

The structures appear in SMILES notation. Read-outs that look alike come from different tables or passages of the source. A value given as a limit tells only on which side of the number the result lay.

We go through 24 compounds from patent US6506766B1 (Abbott Laboratories, priority 1998, dated 2003).

Turning to `COc1cccc2c1-c1ccc3c(c1C(c1cccc(Cl)c1)O2)C(C)=CC(C)(C)N3` (stereo not drawn) [Example 23, 5-(3-Chlorophenyl)-2,5-dihydro-10-methoxy-2,2,4-trimethyl-1H-[1]benzopyrano[3,4-f]quinoline], the Ki was 8.2 nM in test [1] (setting [3]) and 6150 nM in test [2].
For `COc1cccc2c1-c1ccc3c(c1C(c1cccc(C)c1)O2)C(C)=CC(C)(C)N3` (stereo not drawn) [Example 24, 2,5-Dihydro-10-methoxy-2,2,4-trimethyl-5-(3-methylphenyl)-1H-[1]benzopyrano[3,4-f]quinoline] the same measures were 3.5 nM and 14800 nM.
`COc1cccc2c1-c1ccc3c(c1C(c1cc(C)cc(C)c1)O2)C(C)=CC(C)(C)N3` (stereo not drawn) [Example 27, 5-(3,5-Dimethylphenyl)-2,5-dihydro-10-methoxy-2,2,4-trimethyl-1H-[1]benzopyrano[3,4-f]quinoline]: the inhibitory constant (Ki) in test [1] (Ki (nM) GR) came to 5.2 nM; in test [2] it was 3580 nM.
With `COc1cccc2c1-c1ccc3c(c1C(c1ccc(Cl)cc1)O2)C(C)=CC(C)(C)N3` (stereo not drawn) [Example 28, 5-(4-Chlorophenyl)-2,5-dihydro-10-methoxy-2,2,4-trimethyl-1H-[1]benzopyrano[3,4-f]quinoline], the values for the Ki in test [1] (setting [3]) and in test [2] were 4.7 nM and 3270 nM, respectively.
For `COc1cccc2c1-c1ccc3c(c1C(c1ccc(C)c(C)c1)O2)C(C)=CC(C)(C)N3` (stereo not drawn) [Example 29, 5-(3,4-Dimethylphenyl)-2,5-dihydro-10-methoxy-2,2,4-trimethy-1H-[1]benzopyrano[3,4-f]quinoline] the same measures were 7.7 nM and 7760 nM.
Regarding `COc1cccc2c1-c1ccc3c(c1C(c1ccc(F)cc1)O2)C(C)=CC(C)(C)N3` (stereo not drawn) [Example 30, 5-(4-Fluorophenyl)-2,5-dihydro-10-methoxy-2,2,4-trimethyl-1H-[1]benzopyrano[3,4-f]quinoline], the values for the Ki in test [1] (setting [3]) and in test [2] were 13 nM and 7920 nM, respectively.
For `COc1cccc2c1-c1ccc3c(c1C(c1cc(C(F)(F)F)cc(C(F)(F)F)c1)O2)C(C)=CC(C)(C)N3` (stereo not drawn) [Example 31, 5-[3,5-bis(Trifluoromethyl)phenyl]-2,5-dihydro-10-methoxy-2,2,4-trimethyl-1H-[1]benzopyrano[3,4-f]quinoline], the Ki in test [1] (setting [3]) is 12.2 nM; in test [2], at least 10000 nM.
For `COc1cccc2c1-c1ccc3c(c1C(c1cc(F)cc(F)c1)O2)C(C)=CC(C)(C)N3` (stereo not drawn) [Example 34, 5-(3,5-Difluorophenyl)-2,5-dihydro-10-methoxy-2,2,4-trimethyl-1H-[1]benzopyrano[3,4-f]quinoline] the same measures were 4 nM and 4710 nM.
As to `COc1cccc2c1-c1ccc3c(c1C(N(C)c1ccccc1)O2)C(C)=CC(C)(C)N3` (stereo not drawn) [Example 35, 2,5-Dihydro-10-methoxy-2,2,4,N-tetramethyl-N-phenyl-1H-[1]benzopyrano[3,4-f]quinolin-5-amine], the Ki was 260 nM in test [1] (setting [3]) and at least 10000 nM in test [2].
`COc1cccc2c1-c1ccc3c(c1CO2)C(C)=CC(C)(C)N3` [Example 38, 2,5-Dihydro-10-methoxy-2,2,4-trimethyl-1H-[1]benzopyrano[3,4-f]quinoline]: the Ki in test [1] (setting [3]) was 207 nM; in test [2] it was at least 10000 nM.
For `COc1cccc2c1-c1ccc3c(c1C(c1ccc(N(C)C)cc1)O2)C(C)=CC(C)(C)N3` (stereo not drawn) [Example 39, 4-(2,5-Dihydro-10-methoxy-2,2,4-trimethyl-1H-[1]benzopyrano[3,4-f]quinolin-5-yl)-N,N-dimethylbenzenamine], in that order: 31 nM and at least 10000 nM.
For `COc1ccc(C2Oc3cccc(OC)c3-c3ccc4c(c32)C(C)=CC(C)(C)N4)s1` (stereo not drawn) [Example 40, 2,5-Dihydro-10-methoxy-2,2,4-trimethyl-5-(5-methoxy-2-thienyl)1H-[1]benzopyrano[3,4-f]quinoline] the same measures were 18 nM and 18100 nM.
For `CCCc1ccc(C2Oc3cccc(OC)c3-c3ccc4c(c32)C(C)=CC(C)(C)N4)s1` (stereo not drawn) [Example 41, 2,5-Dihydro-10-methoxy-2,2,4-trimethyl-5-(5-propyl-2-thienyl)-1H-[1]benzopyrano[3,4-f]quinoline] the same measures were 9.5 nM and 3300 nM.
In the case of `COc1cccc2c1-c1ccc3c(c1C(c1ccc(N4CCOCC4)cc1)O2)C(C)=CC(C)(C)N3` (stereo not drawn) [Example 42, 2,5-Dihydro-10-methoxy-2,2,4-trimethyl-5-[4-(1-morpholinyl)phenyl]1H-[1]benzopyrano[3,4-f]quinoline], the results for the Ki in test [1] (setting [3]) and in test [2] were 99 nM and at least 10000 nM, respectively.
For `COc1cccc2c1-c1ccc3c(c1C(CC(=O)C(C)(C)C)O2)C(C)=CC(C)(C)N3` (stereo not drawn) [Example 43, 1-(2,5-Dihydro-10-methoxy-2,2,4-trimethyl-1H-[1]benzopyrano[3,4-f]quinolin-5yl)-3,3-dimethyl-2-butanone], in that order: 72 nM and at least 10000 nM.
For `COc1cccc2c1-c1ccc3c(c1C(C#N)O2)C(C)=CC(C)(C)N3` (stereo not drawn) [Example 44, 2,5-Dihydro-10-methoxy-2,2,4-trimethyl-1H-[1]benzopyrano[3,4-f]quinoline-5-carbonitrile], the Ki in test [1] (setting [3]) turned out to be 190 nM; in test [2], 19500 nM.
For `COC(=O)CC1Oc2cccc(OC)c2-c2ccc3c(c21)C(C)=CC(C)(C)N3` (stereo not drawn) [Example 46, Methyl 2,5-Dihydro-10-methoxy-2,2,4-trimethyl-1H-[1]benzopyrano[3,4-f]quinoline-5-acetate], in that order: 2.7 nM and 3440 nM.
Turning to `COc1cccc2c1-c1ccc3c(c1C(CC(=O)c1ccccc1)O2)C(C)=CC(C)(C)N3` (stereo not drawn) [Example 47, 2-(2,5-Dihydro-10-methoxy-2,2,4-trimethyl-1H-[1]benzopyrano[3,4-f]quinolin-5-yl)-1-phenylethanone], the inhibition constant (Ki) is 174 nM in test [1] (setting [3]) and at least 10000 nM in test [2].
For `C=C(CCl)CC1Oc2cccc(OC)c2-c2ccc3c(c21)C(C)=CC(C)(C)N3` (stereo not drawn) [Example 48, 5-[2-(Chloromethyl)-2-propenyl]-2,5-dihydro-10-methoxy-2,2,4-trimethyl-1H-[1]benzopyrano[3,4-f]quinoline], in that order: 5.8 nM and 2770 nM.
For `C=C(COC(C)=O)CC1Oc2cccc(OC)c2-c2ccc3c(c21)C(C)=CC(C)(C)N3` (stereo not drawn) [Example 49] the same measures were 13 nM and at least 10000 nM.
For `COc1cccc2c1-c1ccc3c(c1C(c1ccc(C)cc1)O2)C(C)=CC(C)(C)N3` (stereo not drawn) [Example 50, 2,5-Dihydro-10-methoxy-2,2,4-tnimethyl-5-(4-methylphenyl)-1H-[1]benzopyrano[3,4-f]quinoline] the same measures were 4.9 nM and 9450 nM.
For `COc1cccc2c1-c1ccc3c(c1C(c1ccc(C)c(F)c1)O2)C(C)=CC(C)(C)N3` (stereo not drawn) [Example 51], the results for the Ki in test [1] (setting [3]) and in test [2] were 18 nM and 7330 nM, respectively.
Turning to `COc1cccc2c1-c1ccc3c(c1C(c1cccc(Br)c1)O2)C(C)=CC(C)(C)N3` (stereo not drawn) [Example 52, 5-(3-Bromophenyl)-2,5-dihydro-10-methoxy-2,2,4-trimethyl-1H-[1]benzopyrano[3,4-f]quinoline], the values for the inhibition constant Ki in test [1] (setting [3]) and in test [2] were 3 nM and 2270 nM, respectively.
For `COc1cccc2c1-c1ccc3c(c1C(c1ccc(F)c(C)c1)O2)C(C)=CC(C)(C)N3` (stereo not drawn) [Example 55], in that order: 8.2 nM and at least 10000 nM.

By Ki is commonly meant the dissociation constant of the complex between target and ligand, obtained from inhibition or displacement.
